Laboratory results from the supplement of paper PMC10307832.

Legend:
Test in all cases: relative viability (nuclei count vs DMSO), 5 days (fraction); higher = more cells survive
XMD8-85 + Lapatinib = compound: CN1CCN(CC1)C2=CC(=C(C=C2)NC3=NC=C4C(=N3)N(C5=CC=CC=C5C(=O)N4C)C)OC [XMD8-85] + CS(=O)(=O)CCNCc1ccc(-c2ccc3ncnc(Nc4ccc(OCc5cccc(F)c5)c(Cl)c4)c3c2)o1 [Lapatinib] (partner 2 µM)
In short: (§1)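 Medians of duplicate plates are given as relative viability. That measure is the nuclei count in treated wells divided by the count in vehicle wells. Counts were taken on 4× images of lung cancer cell lines in 1536-well plates, 5 days after pin-tool dosing the day after seeding with one drug alone or a fixed anchor-drug dose plus five library-drug doses (not always all listed) in √10 steps.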

XMD8-85 + Tozasertib = compound: CN1CCN(CC1)C2=CC(=C(C=C2)NC3=NC=C4C(=N3)N(C5=CC=CC=C5C(=O)N4C)C)OC [XMD8-85] + Cc1cc(Nc2cc(N3CCN(C)CC3)nc(Sc3ccc(NC(=O)C4CC4)cc3)n2)n[nH]1 [Tozasertib] (partner 0.1 µM)
In short: as §1

XMD8-85 + Olaparib = compound: CN1CCN(CC1)C2=CC(=C(C=C2)NC3=NC=C4C(=N3)N(C5=CC=CC=C5C(=O)N4C)C)OC [XMD8-85] + O=C(c1cc(Cc2n[nH]c(=O)c3ccccc23)ccc1F)N1CCN(C(=O)C2CC2)CC1 [Olaparib] (partner 8 µM)
In short: as §1

XMD8-85 + Bortezomib = compound: CN1CCN(CC1)C2=CC(=C(C=C2)NC3=NC=C4C(=N3)N(C5=CC=CC=C5C(=O)N4C)C)OC [XMD8-85] + CC(C)C[C@H](NC(=O)[C@H](Cc1ccccc1)NC(=O)c1cnccn1)B(O)O [Bortezomib] (partner 0.002 µM)
In short: as §1

Cell Line | relative viability (XMD8-85 + Lapatinib; first compound 0.08 µM) | relative viability (XMD8-85 + Lapatinib; first compound 0.253 µM) | relative viability (XMD8-85 + Lapatinib; first compound 0.8 µM) | relative viability (XMD8-85 + Lapatinib; first compound 2.53 µM) | relative viability (XMD8-85 + Lapatinib; first compound 8 µM) | relative viability (XMD8-85 + Tozasertib; first compound 0.08 µM) | relative viability (XMD8-85 + Tozasertib; first compound 0.253 µM) | relative viability (XMD8-85 + Tozasertib; first compound 0.8 µM) | relative viability (XMD8-85 + Tozasertib; first compound 2.53 µM) | relative viability (XMD8-85 + Tozasertib; first compound 8 µM) | relative viability (XMD8-85 + Olaparib; first compound 0.08 µM) | relative viability (XMD8-85 + Olaparib; first compound 0.253 µM) | relative viability (XMD8-85 + Olaparib; first compound 0.8 µM) | relative viability (XMD8-85 + Olaparib; first compound 2.53 µM) | relative viability (XMD8-85 + Olaparib; first compound 8 µM) | relative viability (XMD8-85 + Bortezomib; first compound 0.08 µM) | relative viability (XMD8-85 + Bortezomib; first compound 0.253 µM) | relative viability (XMD8-85 + Bortezomib; first compound 0.8 µM) | relative viability (XMD8-85 + Bortezomib; first compound 2.53 µM) | relative viability (XMD8-85 + Bortezomib; first compound 8 µM)
NCI-H2405 | 1.04 | 1.18 | 1.13 | 1.1 | 0.636 | 0.705 | 0.749 | 0.742 | 0.694 | 0.485 | 0.908 | 0.919 | 0.949 | 0.859 | 0.817 | 1.01 | 0.983 | 0.975 | 1.02 | 0.927
NCI-H3122 | 1.12 | 1.01 | 1.04 | 1.09 | 0.965 | 0.427 | 0.453 | 0.373 | 0.237 | 0.177 | 0.574 | 0.673 | 0.691 | 0.762 | 0.676 | 1.11 | 1.02 | 1.05 | 1.05 | 0.915
PC-3 [JPC-3] | 0.405 | 0.466 | 0.477 | 0.492 | 0.422 | 0.723 | 0.848 | 0.974 | 1 | 0.625 | 1.11 | 1.22 | 1.25 | 1.16 | 0.978 | 0.701 | 0.824 | 0.736 | 0.968 | 0.732
PC-14 | 0.32 | 0.398 | 0.276 | 0.38 | 0.268 | 0.556 | 0.529 | 0.541 | 0.463 | 0.397 | 0.253 | 0.213 | 0.229 | 0.237 | 0.14 | 0.794 | 0.964 | 0.821 | 0.935 | 0.596
RERF-LC-KJ | 0.871 | 0.795 | 0.905 | 0.989 | 0.769 | 0.552 | 0.465 | 0.473 | 0.409 | 0.295 | 1.05 | 0.927 | 0.929 | 0.872 | 0.769 | 0.937 | 1.07 | 1.06 | 1.2 | 0.742
SK-LU-1 | 0.549 | 0.892 | 0.852 | 1.07 | 0.699 | 0.278 | 0.328 | 0.276 | 0.294 | 0.185 | 0.482 | 0.509 |  | 0.417 | 0.391 | 0.93 | 0.926 |  | 1.42 | 0.84
SW 1573 | 1.1 | 1.21 | 1.02 | 1.09 | 0.885 | 0.222 | 0.197 | 0.175 | 0.174 | 0.156 | 0.496 | 0.48 | 0.546 |  | 0.341 | 0.881 | 1.34 | 1.02 | 1.03 | 0.639
UMC-11 | 0.835 | 0.853 | 1.17 | 0.976 | 0.724 | 0.251 | 0.209 | 0.233 | 0.248 | 0.197 | 0.475 | 0.358 | 0.389 | 0.325 | 0.231 | 0.538 | 0.577 | 0.903 | 0.852 | 0.373
